The source of these data is patent publication US20060034992A1, “Flavor and fragrance compounds” (priority 2002, published 2006).

The series in a line: Release rate of acetaldehyde from precursor (acid hydrolysis) in phosphate buffer, UV extinction at 280 nm. The series is classed as physicochemical. The settings on record: for half-life at 2.5 mg/mL: phosphate buffer; for rate constant k: Precursor + H2O -> Ethanol + Acetaldehyde. Here is the method:
The release rate of acetaldehyde from the precursor according to formula II with n=1 is measured and compared to 1,2-di[(1′-ethoxy)ethoxy]propane and acetaldehyde diethyl. The measurements are conducted as described in S. M. Oon and D. G. Kubler, “Hydrolysis of Aldal Acetals”, J. Org. Chem., 1982, 47, 1166-1171. A phosphate buffer solution (2 mL) is placed into a quartz cuvette and 5 mg of the respective acetaldehyde precursor is added. The mixture is mixed well and sealed using Parafilm™. The release of acetaldehyde is monitored in a UV-Photometer measuring the increase of the extinction at 280 nm over time. Depending on reaction speed, all 3 to 10 seconds measurements are conducted. […] by the formula C(t)=C0+Cx×(1−e^−kt), wherein C(t) the absorption corresponding to the concentration of acetaldehyde at time t, C0 absorption corresponding to the concentration of acetaldehyde at time t=0, Cx the total amount of acetaldehyde present in the precursor, k the rate constant and t the reaction time. The rate constants are calculated by a numeric approximation program (TABLE CURVE 2D, ©AISN Software Inc.). The half life time λ is calculated from the rate constant using the equation λ=−ln(0.5)/k.

[1] abbreviates: pH 3.5, read-out: half-life (acetaldehyde release) (converted).
[2] abbreviates: pH 3.0, read-out: half-life (acetaldehyde release) (converted).

Each structure is given as a SMILES string. Like-named read-outs stand apart in the source and are kept apart here.

Take `CCOC(C)OCC` [acetaldehyde diethyl acetal, reference compound]: the half-life at 2.5 mg/mL under setting [1] was 41.5 min and the half-life at 2.5 mg/mL under setting [2] was 9.65 min.
As for `CCOC(C)OC(C)OCC` (stereo not shown) [1-ethoxy-1-(1-ethoxy-ethoxy)-ethane], the release of acetaldehyde result (acidic conditions) is reported as “rapidly releases acetaldehyde”. Besides, the stability entry (neutral pH conditions) is “stable”. Further, the rate constant k was 0.005966 s⁻¹ (pH 2.8), 0.003446 s⁻¹ (pH 3.18), 0.00069 s⁻¹ (pH 3.81) and 0.000382 s⁻¹ (pH 4.14). In addition, the half-life at 2.5 mg/mL is 16.1 min under setting [1]; 1.93 min (pH 2.8, calculated from rate constant, read-out: half life time λ (converted)); 5.1 min under setting [2]; 3.35 min (pH 3.18, calculated from rate constant, read-out: half life time λ (converted)); 16.7 min (pH 3.81, calculated from rate constant, read-out: half life time λ (converted)); 30.2 min (pH 4.14, calculated from rate constant, read-out: half life time λ (converted)).
Take `CCOC(C)OCC(C)OC(C)OCC` (stereo not shown) [1,2-di[(1′-ethoxy)ethoyx]propane, 1,2-di[(1′-ethoxy)ethoxy]propane, reference compound]: the half-life at 2.5 mg/mL by setting is: under setting [1], 65.1 min; under setting [2], 10.4 min.
